These results are taken from ChEMBL document CHEMBL5291721, “A preclinical secondary pharmacology resource illuminates target-adverse drug reaction associations of marketed drugs” (Nat Commun, 2023).

As usually defined, the AC50 is the concentration giving half of the maximal activity seen.

The target in test [1] is T1, Muscarinic acetylcholine receptor M2 (Homo sapiens, UniProt P08172).
T1 sequence (P08172 whole entry): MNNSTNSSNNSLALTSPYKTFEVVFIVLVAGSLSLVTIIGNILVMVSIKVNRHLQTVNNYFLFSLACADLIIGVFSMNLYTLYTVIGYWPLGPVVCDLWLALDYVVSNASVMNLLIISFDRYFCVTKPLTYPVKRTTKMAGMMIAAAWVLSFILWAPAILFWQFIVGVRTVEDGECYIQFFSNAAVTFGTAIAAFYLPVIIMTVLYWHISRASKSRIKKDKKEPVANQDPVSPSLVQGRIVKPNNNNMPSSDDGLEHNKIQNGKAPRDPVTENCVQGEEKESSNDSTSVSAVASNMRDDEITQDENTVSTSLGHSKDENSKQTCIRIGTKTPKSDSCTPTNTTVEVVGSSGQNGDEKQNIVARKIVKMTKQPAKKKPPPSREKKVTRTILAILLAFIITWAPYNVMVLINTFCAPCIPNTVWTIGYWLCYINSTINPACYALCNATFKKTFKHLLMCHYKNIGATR
The format is functional, cell-based.

Test [2] deals with Histamine H3 receptor (Homo sapiens, UniProt Q9Y5N1).
Histamine H3 receptor, sequence (Q9Y5N1 whole entry): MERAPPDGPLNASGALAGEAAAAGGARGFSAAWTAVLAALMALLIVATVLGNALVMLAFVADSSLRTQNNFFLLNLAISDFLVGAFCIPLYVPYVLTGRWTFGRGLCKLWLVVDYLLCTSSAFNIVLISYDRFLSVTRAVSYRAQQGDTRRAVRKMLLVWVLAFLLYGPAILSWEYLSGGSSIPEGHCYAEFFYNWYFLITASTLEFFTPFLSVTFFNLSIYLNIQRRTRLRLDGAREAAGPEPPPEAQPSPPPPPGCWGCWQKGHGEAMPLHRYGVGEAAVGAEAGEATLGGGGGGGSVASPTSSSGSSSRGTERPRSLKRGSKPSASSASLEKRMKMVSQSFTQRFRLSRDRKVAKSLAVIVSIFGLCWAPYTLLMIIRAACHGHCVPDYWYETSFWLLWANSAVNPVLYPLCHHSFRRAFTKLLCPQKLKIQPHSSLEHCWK
Test [3] concerns the target Voltage-dependent L-type calcium channel subunit alpha-1C (Rattus norvegicus, UniProt P22002). The class given is functional.
The target in test [4] is T2, Cannabinoid receptor 1 (Homo sapiens, UniProt P21554).
The target of test [5] is T3, Mu-type opioid receptor (Homo sapiens, UniProt P35372).
In test [6] the target is Glutamate receptor ionotropic, NMDA 1 (Rattus norvegicus, UniProt P35439).
Test [7] concerns the target Adenosine receptor A2a (Homo sapiens, UniProt P29274).
In test [8] the target is 3',5'-cyclic-AMP phosphodiesterase 4D (Homo sapiens, UniProt Q08499). The class given is functional.
3',5'-cyclic-AMP phosphodiesterase 4D, sequence (Q08499 whole entry): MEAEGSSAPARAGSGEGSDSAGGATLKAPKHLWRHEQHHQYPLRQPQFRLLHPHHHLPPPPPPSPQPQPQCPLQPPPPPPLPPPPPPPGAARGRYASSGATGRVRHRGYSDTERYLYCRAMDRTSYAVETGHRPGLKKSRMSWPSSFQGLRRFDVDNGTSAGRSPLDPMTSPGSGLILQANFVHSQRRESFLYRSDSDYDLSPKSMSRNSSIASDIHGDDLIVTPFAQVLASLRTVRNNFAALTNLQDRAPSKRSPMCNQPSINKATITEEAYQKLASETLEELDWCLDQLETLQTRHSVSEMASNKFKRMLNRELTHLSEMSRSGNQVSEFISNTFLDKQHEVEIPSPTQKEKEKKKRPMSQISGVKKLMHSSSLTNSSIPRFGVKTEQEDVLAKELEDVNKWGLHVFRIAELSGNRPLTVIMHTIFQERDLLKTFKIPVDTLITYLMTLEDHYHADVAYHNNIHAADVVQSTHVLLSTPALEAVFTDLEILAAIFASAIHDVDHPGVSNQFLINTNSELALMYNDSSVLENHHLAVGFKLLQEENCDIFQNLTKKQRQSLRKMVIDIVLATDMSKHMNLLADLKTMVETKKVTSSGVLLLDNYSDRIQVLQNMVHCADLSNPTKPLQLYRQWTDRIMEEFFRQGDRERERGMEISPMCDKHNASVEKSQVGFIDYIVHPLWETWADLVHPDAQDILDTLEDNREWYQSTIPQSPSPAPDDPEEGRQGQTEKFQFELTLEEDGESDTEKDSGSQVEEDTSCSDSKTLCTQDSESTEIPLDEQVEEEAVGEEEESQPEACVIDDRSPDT
Test [9] addresses Gamma-aminobutyric acid receptor subunit alpha-1 (Rattus norvegicus, UniProt P62813). The format is functional.
For test [10], the target named is Vasopressin V2 receptor (Homo sapiens, UniProt P30518).
Vasopressin V2 receptor, sequence (P30518 whole entry): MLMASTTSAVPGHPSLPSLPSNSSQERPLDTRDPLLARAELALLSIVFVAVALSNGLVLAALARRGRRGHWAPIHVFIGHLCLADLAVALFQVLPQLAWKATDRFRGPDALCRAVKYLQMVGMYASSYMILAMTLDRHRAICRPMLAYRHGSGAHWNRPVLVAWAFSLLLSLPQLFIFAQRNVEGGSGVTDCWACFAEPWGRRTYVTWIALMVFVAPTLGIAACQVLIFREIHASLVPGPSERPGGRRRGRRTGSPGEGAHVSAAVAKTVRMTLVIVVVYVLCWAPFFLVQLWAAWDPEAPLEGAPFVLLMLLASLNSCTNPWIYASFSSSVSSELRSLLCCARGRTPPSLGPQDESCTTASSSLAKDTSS
Test [11] concerns the target Beta-1 adrenergic receptor (Homo sapiens, UniProt P08588). The format is functional.
In test [12] the target is T1, Muscarinic acetylcholine receptor M2. The class given is functional, cell-based. This is another data set of the same source.
In test [13] the target is Histamine H2 receptor (Homo sapiens, UniProt P25021). The format is functional, cell-based.
The target of test [14] is Growth hormone secretagogue receptor type 1 (Homo sapiens, UniProt Q92847).
Test [15] addresses cGMP-inhibited 3',5'-cyclic phosphodiesterase 3A (Homo sapiens, UniProt Q14432). The class given is functional.
The target in test [16] is T2, Cannabinoid receptor 1. The format is functional, cell-based.
Test [17] deals with Vasopressin V1a receptor (Homo sapiens, UniProt P37288).
For test [18], the target named is T3, Mu-type opioid receptor. Description: biochemical. The format is functional.
For test [19], the target named is T4, 5-hydroxytryptamine receptor 1A (Homo sapiens, UniProt P08908).
T4 sequence (P08908 whole entry): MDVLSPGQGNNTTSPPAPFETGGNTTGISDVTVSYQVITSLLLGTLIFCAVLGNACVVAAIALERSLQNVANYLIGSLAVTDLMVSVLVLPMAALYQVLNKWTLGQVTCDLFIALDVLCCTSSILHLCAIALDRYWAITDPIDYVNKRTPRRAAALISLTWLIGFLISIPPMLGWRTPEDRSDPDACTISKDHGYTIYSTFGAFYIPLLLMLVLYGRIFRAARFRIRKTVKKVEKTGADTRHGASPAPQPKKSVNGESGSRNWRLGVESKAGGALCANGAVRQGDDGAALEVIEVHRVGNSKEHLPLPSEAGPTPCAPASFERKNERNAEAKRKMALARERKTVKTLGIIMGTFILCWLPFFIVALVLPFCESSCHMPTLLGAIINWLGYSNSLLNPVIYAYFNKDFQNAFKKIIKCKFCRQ
The format is functional, cell-based.

In test [20] the target is T5, Muscarinic acetylcholine receptor M1 (Homo sapiens, UniProt P11229).
T5 sequence (P11229 whole entry): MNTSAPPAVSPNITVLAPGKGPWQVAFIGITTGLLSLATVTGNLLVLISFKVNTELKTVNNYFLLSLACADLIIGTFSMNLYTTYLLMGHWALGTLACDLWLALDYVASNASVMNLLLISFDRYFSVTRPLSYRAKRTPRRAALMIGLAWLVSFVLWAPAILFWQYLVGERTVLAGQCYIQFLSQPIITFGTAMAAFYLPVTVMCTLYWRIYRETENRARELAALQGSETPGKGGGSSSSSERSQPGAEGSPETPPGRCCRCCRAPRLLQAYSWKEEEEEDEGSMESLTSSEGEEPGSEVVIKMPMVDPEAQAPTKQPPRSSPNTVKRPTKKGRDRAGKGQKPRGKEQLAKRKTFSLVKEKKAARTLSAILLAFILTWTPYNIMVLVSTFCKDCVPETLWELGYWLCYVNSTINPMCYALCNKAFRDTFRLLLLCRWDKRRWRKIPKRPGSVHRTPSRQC
The format is functional.

Test [21] addresses Histamine H1 receptor (Homo sapiens, UniProt P35367).

cGMP-inhibited 3',5'-cyclic phosphodiesterase 3A, sequence (Q14432 whole entry): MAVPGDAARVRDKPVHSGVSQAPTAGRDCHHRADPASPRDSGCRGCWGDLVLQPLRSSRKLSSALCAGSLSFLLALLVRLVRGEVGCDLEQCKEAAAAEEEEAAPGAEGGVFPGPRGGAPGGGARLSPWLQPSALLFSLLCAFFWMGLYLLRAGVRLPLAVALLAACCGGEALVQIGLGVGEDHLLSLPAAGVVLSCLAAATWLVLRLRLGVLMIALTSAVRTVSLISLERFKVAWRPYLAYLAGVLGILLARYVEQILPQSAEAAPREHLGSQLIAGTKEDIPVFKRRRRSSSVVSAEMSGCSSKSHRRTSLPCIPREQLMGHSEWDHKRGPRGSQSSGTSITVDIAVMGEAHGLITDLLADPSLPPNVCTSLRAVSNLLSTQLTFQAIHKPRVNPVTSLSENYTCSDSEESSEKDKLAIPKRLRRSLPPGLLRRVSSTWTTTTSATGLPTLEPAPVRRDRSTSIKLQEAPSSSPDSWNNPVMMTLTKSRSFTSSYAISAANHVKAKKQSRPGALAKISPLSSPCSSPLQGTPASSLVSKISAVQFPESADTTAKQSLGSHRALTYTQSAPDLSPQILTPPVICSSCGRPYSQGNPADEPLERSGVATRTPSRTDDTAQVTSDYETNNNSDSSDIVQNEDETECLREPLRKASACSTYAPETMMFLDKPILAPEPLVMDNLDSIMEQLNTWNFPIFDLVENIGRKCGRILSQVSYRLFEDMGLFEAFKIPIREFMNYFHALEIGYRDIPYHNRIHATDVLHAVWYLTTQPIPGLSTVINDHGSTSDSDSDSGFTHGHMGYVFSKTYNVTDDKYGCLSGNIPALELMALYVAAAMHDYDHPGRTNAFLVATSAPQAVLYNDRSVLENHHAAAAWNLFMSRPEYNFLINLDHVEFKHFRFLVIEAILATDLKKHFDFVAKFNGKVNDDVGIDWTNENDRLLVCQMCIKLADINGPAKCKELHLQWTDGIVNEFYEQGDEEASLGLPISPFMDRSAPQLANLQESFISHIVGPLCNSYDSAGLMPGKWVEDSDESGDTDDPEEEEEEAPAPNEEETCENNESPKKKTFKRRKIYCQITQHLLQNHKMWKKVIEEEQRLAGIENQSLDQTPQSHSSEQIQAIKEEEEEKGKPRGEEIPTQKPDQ
Voltage-dependent L-type calcium channel subunit alpha-1C, sequence (P22002 whole entry): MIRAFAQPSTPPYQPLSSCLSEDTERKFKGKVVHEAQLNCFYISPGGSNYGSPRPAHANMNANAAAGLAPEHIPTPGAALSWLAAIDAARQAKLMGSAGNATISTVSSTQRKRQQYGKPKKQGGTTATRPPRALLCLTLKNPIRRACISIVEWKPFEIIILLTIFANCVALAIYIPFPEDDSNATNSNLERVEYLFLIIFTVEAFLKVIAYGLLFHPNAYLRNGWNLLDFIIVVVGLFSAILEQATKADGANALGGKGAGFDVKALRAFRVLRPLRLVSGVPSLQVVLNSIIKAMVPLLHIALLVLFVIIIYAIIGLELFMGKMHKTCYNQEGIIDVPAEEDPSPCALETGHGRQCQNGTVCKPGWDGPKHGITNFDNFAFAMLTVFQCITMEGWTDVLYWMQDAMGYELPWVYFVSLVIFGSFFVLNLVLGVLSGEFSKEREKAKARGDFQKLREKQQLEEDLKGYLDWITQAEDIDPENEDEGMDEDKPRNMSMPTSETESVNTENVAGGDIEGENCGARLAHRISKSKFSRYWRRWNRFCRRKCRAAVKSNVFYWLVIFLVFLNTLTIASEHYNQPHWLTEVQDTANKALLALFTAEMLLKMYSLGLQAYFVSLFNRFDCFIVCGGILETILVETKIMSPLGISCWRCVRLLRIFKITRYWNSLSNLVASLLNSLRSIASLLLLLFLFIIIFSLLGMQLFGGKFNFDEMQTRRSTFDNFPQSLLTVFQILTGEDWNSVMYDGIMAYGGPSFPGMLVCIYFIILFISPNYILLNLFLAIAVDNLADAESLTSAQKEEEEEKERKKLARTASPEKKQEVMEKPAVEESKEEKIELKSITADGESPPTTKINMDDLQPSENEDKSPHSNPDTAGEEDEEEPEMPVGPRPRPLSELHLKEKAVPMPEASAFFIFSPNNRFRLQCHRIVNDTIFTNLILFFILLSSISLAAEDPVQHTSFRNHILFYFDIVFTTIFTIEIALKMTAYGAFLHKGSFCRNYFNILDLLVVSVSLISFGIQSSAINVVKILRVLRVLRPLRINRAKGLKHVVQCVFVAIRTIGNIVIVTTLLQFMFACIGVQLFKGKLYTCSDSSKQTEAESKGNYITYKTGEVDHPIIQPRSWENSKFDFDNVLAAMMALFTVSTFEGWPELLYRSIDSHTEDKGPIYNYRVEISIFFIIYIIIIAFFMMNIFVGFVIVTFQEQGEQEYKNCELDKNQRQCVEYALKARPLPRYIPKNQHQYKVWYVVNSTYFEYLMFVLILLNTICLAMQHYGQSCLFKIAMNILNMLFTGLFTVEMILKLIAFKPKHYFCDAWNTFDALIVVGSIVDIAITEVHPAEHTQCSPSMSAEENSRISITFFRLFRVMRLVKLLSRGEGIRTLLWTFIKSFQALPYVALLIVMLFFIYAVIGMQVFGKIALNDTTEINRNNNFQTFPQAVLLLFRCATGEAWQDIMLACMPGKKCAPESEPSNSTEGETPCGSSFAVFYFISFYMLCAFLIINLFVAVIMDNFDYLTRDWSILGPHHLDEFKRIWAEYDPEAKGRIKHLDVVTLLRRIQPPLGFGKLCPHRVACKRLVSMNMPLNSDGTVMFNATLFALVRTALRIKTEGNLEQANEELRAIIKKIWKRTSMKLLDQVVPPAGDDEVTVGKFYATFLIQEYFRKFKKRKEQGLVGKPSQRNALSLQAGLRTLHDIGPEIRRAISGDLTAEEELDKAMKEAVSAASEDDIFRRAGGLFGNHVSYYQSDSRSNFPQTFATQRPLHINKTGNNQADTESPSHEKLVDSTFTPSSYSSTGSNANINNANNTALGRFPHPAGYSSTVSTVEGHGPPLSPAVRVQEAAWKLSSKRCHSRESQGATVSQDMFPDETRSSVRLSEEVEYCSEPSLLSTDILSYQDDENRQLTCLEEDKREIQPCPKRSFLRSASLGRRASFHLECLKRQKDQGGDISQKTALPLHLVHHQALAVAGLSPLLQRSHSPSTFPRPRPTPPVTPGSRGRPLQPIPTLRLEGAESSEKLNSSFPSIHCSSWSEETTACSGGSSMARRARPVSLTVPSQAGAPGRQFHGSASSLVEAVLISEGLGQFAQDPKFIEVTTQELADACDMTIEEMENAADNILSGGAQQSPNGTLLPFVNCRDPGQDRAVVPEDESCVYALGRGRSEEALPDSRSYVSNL

`Cc1cc(=O)n(-c2ccccc2)n1C` [ANTIPYRINE]: the AC50 in test [1] is > 10 µM; in [2] it was > 10 µM; in test [3] it was > 10 µM; in [4], > 10 µM; in test [5] it was > 30 µM; in test [6] it was > 10 µM. The AC50 was > 30 µM in [7]; > 30 µM in [8]; > 10 µM in [9]; > 30 µM in [10]; > 10 µM in test [11]; > 10 µM in test [12]. Besides, the AC50 in test [13] was > 10 µM; in [14] it was > 30 µM; in [15] it was > 30 µM; in test [16], > 30 µM.
Take `O=C(O)CCNC(=O)c1ccc(/N=N/c2ccc(O)c(C(=O)O)c2)cc1` [BALSALAZIDE]: the AC50 was > 30 µM in test [1]; 35.5 µM in test [2]; > 30 µM in [3]; > 30 µM in [4]; > 30 µM in test [6]; 33.7 µM in test [17]. Also, the AC50 in [18] is > 30 µM; in test [7] it was 33.1 µM; in [8], > 30 µM; in [9] it was > 30 µM; in test [10], 36.9 µM; in [11] it was > 30 µM. Also, the AC50 in test [12], in [13], in [14], in test [15] and in test [19] was > 30 µM each time.
Regarding `O=C(CCCN1CCC(O)(c2ccc(Br)cc2)CC1)c1ccc(F)cc1` [BROMPERIDOL], the half-maximal activity concentration (AC50) in [1] is > 30 µM; in test [2] it was > 30 µM; in [3], > 30 µM; in [20] it was 20 µM; in test [6], > 30 µM; in test [17], > 30 µM. For the same molecule, the AC50 in test [18] is 2 µM; in test [7], > 30 µM; in [8] it was > 30 µM; in test [9], > 30 µM; in test [10] it was > 30 µM; in test [11] it was > 30 µM. Also, the AC50 in test [12] is > 30 µM; in test [13], > 30 µM; in test [14] it was 6.9 µM; in test [15] it was > 30 µM; in test [19], 1.2 µM; in test [16], > 30 µM.
Take `CCN1CC(CCN2CCOCC2)C(c2ccccc2)(c2ccccc2)C1=O` (stereo unspecified) [DOXAPRAM]: the AC50 in test [1], in test [2], in [3], in test [6], in [18] and in [7] was > 30 µM throughout. Besides, the AC50 in [8], in test [9], in test [10], in test [11], in test [12] and in [13] was > 30 µM in each case. Further, the half-maximal activity concentration (AC50) in test [14], in test [15], in test [19] and in test [16] was > 30 µM each time.
Consider `CC(C)NC[C@H](O)COc1ccc(CC(N)=O)cc1` [ESATENOLOL], for which the AC50 is > 10 µM in [6]; > 10 µM in test [17]; > 30 µM in test [7]; > 10 µM in test [8]; > 30 µM in test [10]; > 10 µM in [13]. For the same molecule, the AC50 in [14] is > 30 µM; in test [15] it was > 10 µM; in [19] it was > 10 µM.
As to `C[C@]12C/C(=C/O)C(=O)C[C@@H]1CC[C@@H]1[C@@H]2CC[C@@]2(C)[C@H]1CC[C@]2(C)O` [OXYMETHOLONE], the AC50 in test [1], in [2], in test [6], in test [18], in test [7] and in test [8] was > 30 µM throughout. The AC50 in test [9], in test [10], in [11], in [12], in test [13] and in test [14] was > 30 µM each time. Besides, the AC50 in test [15] and in [16] was > 30 µM each time.
As to `Fc1ccc([C@@H]2CCNC[C@H]2COc2ccc3c(c2)OCO3)cc1` [PAROXETINE], the AC50 in test [2] is > 10 µM; in test [3], 2.5 µM; in [4], 2.72 µM; in test [6] it was > 10 µM; in test [17], > 10 µM; in test [7], > 30 µM. In addition, the AC50 is > 30 µM in test [8]; > 10 µM in test [9]; > 30 µM in test [10]; > 10 µM in [11]; > 30 µM in test [14]; > 30 µM in test [15]. Besides, the AC50 in test [19] is > 10 µM.
Turning to `O=c1c(O)c(-c2ccc(O)c(O)c2)oc2cc(O)cc(O)c12` [QUERCETIN], the AC50 in test [1] was > 10 µM; in [2] it was > 10 µM; in test [3], > 10 µM; in test [20], > 10 µM; in [21] it was > 10 µM; in test [17], > 30 µM. Also, the AC50 in test [7] is > 30 µM; in test [8], > 10 µM; in test [12], 10 µM; in test [13] it was > 30 µM; in test [14], > 30 µM; in [15] it was > 30 µM. The AC50 in test [19] was > 10 µM.
On to `COc1cc(C(=O)NC2CCCNC2)cc(OC)c1OC` (stereo unspecified) [TROXIPIDE], for which the half-maximal activity concentration (AC50) in test [1], in test [2], in test [3], in test [6], in test [18] and in test [7] was > 30 µM in each case. The concentration at half-maximal activity (AC50) in test [8], in [9], in test [10], in [11], in test [12] and in test [13] was > 30 µM each time. For the same molecule, the AC50 in test [14], in test [15] and in test [16] was > 30 µM each time.
On to `CCCCCCCC(=O)CC[C@@H]1[C@@H](C/C=C\CCCC(=O)OC(C)C)[C@@H](O)C[C@H]1O` [UNOPROSTONE ISOPROPYL], for which the concentration at half-maximal activity (AC50) in [20] was > 30 µM; in [21] it was > 30 µM; in test [8], 9.6 µM; in test [15] it was > 30 µM.
For the molecule `CC(c1cc2ccccc2s1)N(O)C(N)=O` (stereo unspecified) [ZILEUTON], the AC50 was > 10 µM in [1]; > 10 µM in test [2]; > 10 µM in test [3]; > 10 µM in test [4]; > 30 µM in test [5]; > 10 µM in [6]. The AC50 in test [7] was > 10 µM; in [8], > 30 µM; in [9] it was > 10 µM; in test [10], > 10 µM; in test [11] it was > 10 µM; in test [12] it was > 10 µM. Besides, the AC50 in [13] was > 10 µM; in [14], > 10 µM; in [15], > 30 µM; in test [16], > 30 µM.
